Reference: PubChem BioAssay (NCI)
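Dose response: 5 concentrations. Exposure: 48 h. Format: 96-well plates. Endpoint: linear interpolation; highest concentration if not reached. Definition used: TGI = concentration required for complete inhibition of growth.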

What was measured:
Test in all cases: DTP human tumour cell line panel, 48 h
SF-295 CNS = system: SF-295 CNS
M14 melanoma = system: M14 melanoma
CCRF-CEM leukemia = system: CCRF-CEM leukemia
SW-620 colon = system: SW-620 colon
KM12 colon = system: KM12 colon
KM20L2 colon = system: KM20L2 colon
HT29 colon = system: HT29 colon
SNB-75 CNS = system: SNB-75 CNS
U251 CNS = system: U251 CNS
HOP-62 NSCLC = system: HOP-62 NSCLC
HCC-2998 colon = system: HCC-2998 colon
SK-MEL-2 melanoma = system: SK-MEL-2 melanoma
HOP-92 NSCLC = system: HOP-92 NSCLC
DMS 273 small cell lung = system: DMS 273 small cell lung
UO-31 renal = system: UO-31 renal
OVCAR-8 ovarian = system: OVCAR-8 ovarian
UACC-62 melanoma = system: UACC-62 melanoma
HCT-116 colon = system: HCT-116 colon
NCI-H522 lung = system: NCI-H522 lung
SF-268 CNS = system: SF-268 CNS
SK-MEL-5 melanoma = system: SK-MEL-5 melanoma
SK-MEL-28 melanoma = system: SK-MEL-28 melanoma
EKVX NSCLC = system: EKVX NSCLC
DMS 114 small cell lung = system: DMS 114 small cell lung
A549 NSCLC = system: A549 NSCLC
SNB-78 CNS = system: SNB-78 CNS
IGROV1 ovarian = system: IGROV1 ovarian
SR leukemia = system: SR leukemia
LXFL 529 NSCLC = system: LXFL 529 NSCLC
OVCAR-5 ovarian = system: OVCAR-5 ovarian
SNB-19 CNS = system: SNB-19 CNS
ACHN renal = system: ACHN renal
OVCAR-4 ovarian = system: OVCAR-4 ovarian
SN12C renal = system: SN12C renal
XF 498 CNS = system: XF 498 CNS
UACC-257 melanoma = system: UACC-257 melanoma
M19-MEL melanoma = system: M19-MEL melanoma
CAKI-1 renal = system: CAKI-1 renal
OVCAR-3 ovarian = system: OVCAR-3 ovarian
LOX IMVI melanoma = system: LOX IMVI melanoma
SF-539 CNS = system: SF-539 CNS
RXF-631 renal = system: RXF-631 renal
HL-60(TB) leukemia = system: HL-60(TB) leukemia
MOLT-4 leukemia = system: MOLT-4 leukemia
HOP-18 NSCLC = system: HOP-18 NSCLC
786-0 renal = system: 786-0 renal
TK-10 renal = system: TK-10 renal
K-562 leukemia = system: K-562 leukemia
RPMI-8226 leukemia = system: RPMI-8226 leukemia
COLO 205 colon = system: COLO 205 colon
DLD-1 colon = system: DLD-1 colon
RXF 393 renal = system: RXF 393 renal
NCI-H460 lung = system: NCI-H460 lung
SK-OV-3 ovarian = system: SK-OV-3 ovarian
MALME-3M melanoma = system: MALME-3M melanoma
NCI-H23 lung = system: NCI-H23 lung
HCT-15 colon = system: HCT-15 colon
A498 renal = system: A498 renal
NCI-H226 lung = system: NCI-H226 lung

Measured: TGI

Cc1ccc(NC(=O)CC(=O)n2nc(-c3ccccc3)c(N=Nc3ccccc3[N+](=O)[O-])c2-c2ccccc2)cc1
> 100 µM: SF-295 CNS | M14 melanoma | CCRF-CEM leukemia | SW-620 colon | KM12 colon | KM20L2 colon | HT29 colon | SNB-75 CNS | U251 CNS | HOP-62 NSCLC | HCC-2998 colon | SK-MEL-2 melanoma | HOP-92 NSCLC | DMS 273 small cell lung | UO-31 renal | OVCAR-8 ovarian | UACC-62 melanoma | HCT-116 colon | NCI-H522 lung | SF-268 CNS | SK-MEL-5 melanoma | SK-MEL-28 melanoma | EKVX NSCLC | DMS 114 small cell lung | A549 NSCLC | SNB-78 CNS | IGROV1 ovarian | SR leukemia | LXFL 529 NSCLC | OVCAR-5 ovarian | SNB-19 CNS | ACHN renal | OVCAR-4 ovarian | SN12C renal | XF 498 CNS | UACC-257 melanoma | M19-MEL melanoma | CAKI-1 renal | OVCAR-3 ovarian | LOX IMVI melanoma | SF-539 CNS | RXF-631 renal | HL-60(TB) leukemia | MOLT-4 leukemia | HOP-18 NSCLC | 786-0 renal | TK-10 renal | K-562 leukemia | RPMI-8226 leukemia | COLO 205 colon | DLD-1 colon | RXF 393 renal | NCI-H460 lung | SK-OV-3 ovarian | MALME-3M melanoma | NCI-H23 lung

CCOC(=O)c1sc2c(sc(=O)n2-c2ccccc2)c1O
> 100 µM: SF-295 CNS | M14 melanoma | CCRF-CEM leukemia | HCT-15 colon | KM12 colon | KM20L2 colon | HT29 colon | SNB-75 CNS | U251 CNS | HOP-62 NSCLC | HCC-2998 colon | SK-MEL-2 melanoma | HOP-92 NSCLC | DMS 273 small cell lung | UO-31 renal | OVCAR-8 ovarian | UACC-62 melanoma | HCT-116 colon | NCI-H522 lung | SF-268 CNS | SK-MEL-5 melanoma | SK-MEL-28 melanoma | EKVX NSCLC | DMS 114 small cell lung | A549 NSCLC | SNB-78 CNS | IGROV1 ovarian | SR leukemia | LXFL 529 NSCLC | OVCAR-5 ovarian | SNB-19 CNS | ACHN renal | OVCAR-4 ovarian | SN12C renal | A498 renal | XF 498 CNS | UACC-257 melanoma | M19-MEL melanoma | CAKI-1 renal | OVCAR-3 ovarian | LOX IMVI melanoma | SF-539 CNS | RXF-631 renal | HL-60(TB) leukemia | MOLT-4 leukemia | HOP-18 NSCLC | 786-0 renal | TK-10 renal | K-562 leukemia | COLO 205 colon | DLD-1 colon | RXF 393 renal | NCI-H460 lung | SK-OV-3 ovarian | MALME-3M melanoma | NCI-H23 lung | NCI-H226 lung
